Source: PubChem BioAssay AID248 (DTP/NCI, 2004)
Where “and” joins values, the source holds several entries; their conditions need not be identical. Equal entries are not always repeated. Toxic doses and inconclusive results are not listed. Cut-off read from the data, not from the text of the source: active = T/C of 150% or more; inactive = T/C below 125%.

Tested on: L1210 leukemia ip in BDF1 mice, survival T/C
Assay: NCI In Vivo Anticancer Drug Screen. Data for tumor model L1210 Leukemia (intraperitoneal) in B6D2F1 (BDF1) mice
Conditions: endpoint: mean survival time, higher = longer survival
Procedure, shortened: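 Tumor was transplanted into mice, which were then dosed with test compound or vehicle alone. Survival was recorded for each group, and the treated figure was expressed relative to the control figure.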

[1] = dose: 100.0 mg/kg/injection, schedule: Q04DX002 (ip), vehicle: saline
[2] = dose: 25.0 mg/kg/injection, schedule: Q01DX009 (ip), vehicle: saline with Tween-80
[3] = dose: 50.0 mg/kg/injection, schedule: Q01DX009 (ip), vehicle: saline with Tween-80
[4] = dose: 100.0 mg/kg/injection, schedule: Q04DX002 (ip), vehicle: Klucel (hydroxypropylcellulose) (HPC)
[5] = dose: 100.0 mg/kg/injection, schedule: Q01DX001 (ip), vehicle: saline
[6] = dose: 200.0 mg/kg/injection, schedule: Q01DX001 (ip), vehicle: saline
[7] = dose: 400.0 mg/kg/injection, schedule: Q01DX001 (ip), vehicle: saline
[8] = dose: 100.0 mg/kg/injection, schedule: Q01DX001 (ip), vehicle: carboxymethylcellulose (CMC)
[9] = dose: 200.0 mg/kg/injection, schedule: Q01DX001 (ip), vehicle: carboxymethylcellulose (CMC)
[10] = dose: 400.0 mg/kg/injection, schedule: Q01DX001 (ip), vehicle: carboxymethylcellulose (CMC)
[11] = dose: 100.0 mg/kg/injection, schedule: Q01DX009 (ip), vehicle: Klucel (hydroxypropylcellulose) (HPC)
[12] = dose: 100.0 mg/kg/injection, schedule: Q04DX003 (ip), vehicle: Klucel (hydroxypropylcellulose) (HPC)
[13] = dose: 200.0 mg/kg/injection, schedule: Q01DX009 (ip), vehicle: Klucel (hydroxypropylcellulose) (HPC)
[14] = dose: 200.0 mg/kg/injection, schedule: Q04DX002 (ip), vehicle: Klucel (hydroxypropylcellulose) (HPC)
[15] = dose: 200.0 mg/kg/injection, schedule: Q04DX003 (ip), vehicle: Klucel (hydroxypropylcellulose) (HPC)
[16] = dose: 400.0 mg/kg/injection, schedule: Q01DX009 (ip), vehicle: Klucel (hydroxypropylcellulose) (HPC)
[17] = dose: 400.0 mg/kg/injection, schedule: Q04DX002 (ip), vehicle: Klucel (hydroxypropylcellulose) (HPC)
[18] = dose: 400.0 mg/kg/injection, schedule: Q04DX003 (ip), vehicle: Klucel (hydroxypropylcellulose) (HPC)
[19] = dose: 100.0 mg/kg/injection, schedule: Q04DX003 (ip), vehicle: saline with Tween-80
[20] = dose: 200.0 mg/kg/injection, schedule: Q04DX003 (ip), vehicle: saline with Tween-80
[21] = dose: 400.0 mg/kg/injection, schedule: Q04DX003 (ip), vehicle: saline with Tween-80

Measured: T/C

CCCCCCN1CCCC(OC(=O)N(C)C)C1 (stereo unspecified)
inactive: dose: 25.0 mg/kg/injection, schedule: Q04DX002 (ip), vehicle: saline 113 % of control | dose: 50.0 mg/kg/injection, schedule: Q04DX002 (ip), vehicle: saline 103 % of control | [1] 100 % of control and 104 % of control

O=S(=O)(N/C(=C(/c1ccccc1)N(c1ccccc1)S(=O)(=O)c1ccccc1)c1ccccc1)c1ccccc1
inactive: dose: 75.0 mg/kg/injection, schedule: Q01DX001 (ip), vehicle: Klucel (hydroxypropylcellulose) (HPC) 90 % of control | dose: 150.0 mg/kg/injection, schedule: Q01DX001 (ip), vehicle: Klucel (hydroxypropylcellulose) (HPC) 87 % of control | dose: 300.0 mg/kg/injection, schedule: Q01DX001 (ip), vehicle: Klucel (hydroxypropylcellulose) (HPC) 90 % of control

O=[N+]([O-])c1ccc(N=Cc2ccccc2O)cc1.O=[N+]([O-])c1ccc(N=Cc2ccccc2O)cc1.[Cu]
inactive: dose: 12.5 mg/kg/injection, schedule: Q01DX009 (ip), vehicle: saline with Tween-80 100 % of control | [2] 94 % of control | [3] 93 % of control

O=C(OCc1ccccc1CN1CCCCC1)c1ccc([N+](=O)[O-])cc1
inactive: dose: 25.0 mg/kg/injection, schedule: Q04DX002 (ip), vehicle: Klucel (hydroxypropylcellulose) (HPC) 101 % of control | dose: 50.0 mg/kg/injection, schedule: Q04DX002 (ip), vehicle: Klucel (hydroxypropylcellulose) (HPC) 94 % of control | [4] 90 % of control

O=C(O)C(=O)C(Cl)Br (stereo unspecified)
inactive: dose: 12.5 mg/kg/injection, schedule: Q01DX001 (ip), vehicle: saline 111 % of control | dose: 25.0 mg/kg/injection, schedule: Q01DX001 (ip), vehicle: saline 118 % of control | dose: 50.0 mg/kg/injection, schedule: Q01DX001 (ip), vehicle: saline 111 % of control

COc1ccc(Cc2ccc3c(C)cc(Cl)nc3c2)cc1
inactive: [5] 98 % of control | [6] 103 % of control | [7] 108 % of control

O=C(O)c1ccccc1CC(O)(c1ccccc1)C(O)(Cc1ccccc1C(=O)O)c1ccccc1 (stereo unspecified)
inactive: [8] 94 % of control | [9] 102 % of control | [10] 96 % of control

[Co]#[Sb]
inactive: dose: 75.0 mg/kg/injection, schedule: Q04DX003 (sc), vehicle: olive oil, sesame oil, peanut oil 96 % of control | dose: 150.0 mg/kg/injection, schedule: Q04DX003 (sc), vehicle: olive oil, sesame oil, peanut oil 95 % of control | dose: 300.0 mg/kg/injection, schedule: Q04DX003 (sc), vehicle: olive oil, sesame oil, peanut oil 105 % of control

CCOC(=O)C1=NN(c2ccccc2)C(=O)C1N=Nc1ccc(S(=O)(=O)Nc2ncccn2)cc1 (stereo unspecified)
inactive: [5] 98 % of control | [6] 96 % of control | [7] 101 % of control

CCCCCCCCCc1cc(C)cc(Cc2cc(C)cc(CCCCCCCCC)c2O)c1O
inactive: [5] 98 % of control | [6] 98 % of control | [7] 101 % of control

CN1CCN(C(=O)Nc2cccc(F)c2)CC1
inactive: [2] 97 % of control | [3] 101 % of control | dose: 100.0 mg/kg/injection, schedule: Q01DX009 (ip), vehicle: saline with Tween-80 94 % of control and 96 % of control

O=C(COc1ccc(Cl)cc1)Nc1ccccc1Br
inactive: dose: 100.0 mg/kg/injection, schedule: Q04DX002 (ip), vehicle: saline + alcohol 96 % of control | dose: 200.0 mg/kg/injection, schedule: Q04DX002 (ip), vehicle: saline + alcohol 107 % of control | dose: 400.0 mg/kg/injection, schedule: Q04DX002 (ip), vehicle: saline + alcohol 103 % of control

O=CC(C=O)[N+](=O)[O-]
inactive: [11] 100 % of control | [4] 97 % of control | [12] 97 % of control | [13] 105 % of control | [14] 94 % of control | [15] 102 % of control | [16] 108 % of control | [17] 105 % of control | [18] 102 % of control

COc1ccc(-c2cc3c(OC)ccc(OC)c3[nH]2)cc1
inactive: [4] 93 % of control | [14] 102 % of control | [17] 93 % of control

Oc1ccc2ccccc2c1N=Nc1ccccn1
inactive: dose: 25.0 mg/kg/injection, schedule: Q04DX002 (ip), vehicle: saline with Tween-80 101 % of control | dose: 50.0 mg/kg/injection, schedule: Q04DX002 (ip), vehicle: saline with Tween-80 98 % of control | dose: 100.0 mg/kg/injection, schedule: Q04DX002 (ip), vehicle: saline with Tween-80 95 % of control

Cc1ccc(N=Nc2ccc(C)cc2NC(=O)c2cccc3ccccc23)cc1
inactive: [11] 92 % of control | [4] 104 % of control | [13] 100 % of control | [14] 96 % of control | [16] 95 % of control | [17] 93 % of control

O=C(/C(=C\c1ccccc1)CN1CCOCC1)c1ccc(Br)cc1
inactive: dose: 12.5 mg/kg/injection, schedule: Q01DX009 (ip), vehicle: Klucel (hydroxypropylcellulose) (HPC) 96 % of control | dose: 25.0 mg/kg/injection, schedule: Q01DX009 (ip), vehicle: Klucel (hydroxypropylcellulose) (HPC) 93 % of control | dose: 50.0 mg/kg/injection, schedule: Q01DX009 (ip), vehicle: Klucel (hydroxypropylcellulose) (HPC) 91 % of control | [19] 87 % of control | [20] 93 % of control

CC(C)COC(=O)COc1ccccc1
inactive: [19] 104 % of control | [20] 104 % of control | [21] 86 % of control

CCC(O)C(c1ccccc1)(c1ccccc1)C(C)CN(C)C (stereo unspecified)
inactive: [5] 100 % of control | [6] 97 % of control

CCC1(NS(=O)(=O)c2ccc(NC(C)=O)cc2)C(=O)N(C)C(=O)N(C)C1=O
inactive: [5] 95 % of control | [6] 91 % of control | [7] 91 % of control

CC1(C(N)=O)CCCC2(C)c3ccccc3CCC12 (stereo unspecified)
inactive: [19] 92 % of control | [20] 95 % of control | [21] 94 % of control

O=C(Nc1ccccc1)OC1C=CC2CCC1C2 (stereo unspecified)
inactive: [5] 90 % of control | [6] 87 % of control | [7] 87 % of control

c1ccc(C(C2CCCCC2)(C2CCCCC2)C(c2ccccc2)(C2CCCCC2)C2CCCCC2)cc1
inactive: dose: 25.0 mg/kg/injection, schedule: Q04DX003 (ip), vehicle: Klucel (hydroxypropylcellulose) (HPC) 105 % of control | dose: 50.0 mg/kg/injection, schedule: Q04DX003 (ip), vehicle: Klucel (hydroxypropylcellulose) (HPC) 111 % of control | [12] 92 % of control and 93 % of control | [15] 93 % of control | [18] 87 % of control

CN(C)c1ccc(C(=S)c2ccc(N(C)C)nc2)cn1
inactive: [11] 102 % of control | [12] 98 % of control | [13] 88 % of control | [15] 106 % of control | [16] 98 % of control | [18] 104 % of control

O=C(O)c1cccc2nc3ccccc3nc12
inactive: [4] 100 % of control | [14] 102 % of control | [17] 96 % of control

CNC(=S)Nc1ccc(C)c(Cl)c1
inactive: [1] 104 % of control | dose: 200.0 mg/kg/injection, schedule: Q04DX002 (ip), vehicle: saline 108 % of control | dose: 400.0 mg/kg/injection, schedule: Q04DX002 (ip), vehicle: saline 106 % of control

COCC(=O)Nc1ccc(Cl)c(Cl)c1
inactive: [8] 100 % of control | [9] 92 % of control | [10] 97 % of control

O=c1[nH]cnc2nc(Br)[nH]c12
inactive: [5] 104 % of control | [6] 95 % of control | [7] 98 % of control

CCOC(=O)C(C=Nc1ccc(S(N)(=O)=O)cc1)C(=O)OCC
inactive: [19] 105 % of control | [20] 92 % of control | [21] 92 % of control

Cn1c2ccccc2c(=O)c2c(O)cc3c(c21)C=CC(C)(C)O3
inactive: dose: 50.0 mg/kg/injection, schedule: Q01DX001 (ip), vehicle: carboxymethylcellulose (CMC) 98 % of control | [8] 90 % of control | [9] 88 % of control | [10] 88 % of control

CN(CCc1ccccc1)C(N)=S
inactive: dose: 75.0 mg/kg/injection, schedule: Q01DX001 (ip), vehicle: acetone 96 % of control

Cc1ccc(CN(CCO)Cc2ccccc2)cc1
inactive: dose: 3.12 mg/kg/injection, schedule: Q01DX009 (ip), vehicle: water 86 % of control | dose: 6.25 mg/kg/injection, schedule: Q01DX009 (ip), vehicle: water 89 % of control | dose: 12.5 mg/kg/injection, schedule: Q01DX009 (ip), vehicle: water 93 % of control and 100 % of control | dose: 50.0 mg/kg/injection, schedule: Q01DX009 (ip), vehicle: water 93 % of control
